Experiment [1] deals with Electric eel AChE (type-VI-S) (Electrophorus electricus, UniProt O42275). Description: Anti-cholinesterase inhibition assay. Type of experiment: biochemical.
The target in experiment [2] is equine BChE (Equus caballus, UniProt P81908). Description: Anti-cholinesterase inhibition assay. Type of experiment: biochemical.

Structures are written as SMILES.

Sequence of Electric eel AChE (type-VI-S) (O42275 24-633): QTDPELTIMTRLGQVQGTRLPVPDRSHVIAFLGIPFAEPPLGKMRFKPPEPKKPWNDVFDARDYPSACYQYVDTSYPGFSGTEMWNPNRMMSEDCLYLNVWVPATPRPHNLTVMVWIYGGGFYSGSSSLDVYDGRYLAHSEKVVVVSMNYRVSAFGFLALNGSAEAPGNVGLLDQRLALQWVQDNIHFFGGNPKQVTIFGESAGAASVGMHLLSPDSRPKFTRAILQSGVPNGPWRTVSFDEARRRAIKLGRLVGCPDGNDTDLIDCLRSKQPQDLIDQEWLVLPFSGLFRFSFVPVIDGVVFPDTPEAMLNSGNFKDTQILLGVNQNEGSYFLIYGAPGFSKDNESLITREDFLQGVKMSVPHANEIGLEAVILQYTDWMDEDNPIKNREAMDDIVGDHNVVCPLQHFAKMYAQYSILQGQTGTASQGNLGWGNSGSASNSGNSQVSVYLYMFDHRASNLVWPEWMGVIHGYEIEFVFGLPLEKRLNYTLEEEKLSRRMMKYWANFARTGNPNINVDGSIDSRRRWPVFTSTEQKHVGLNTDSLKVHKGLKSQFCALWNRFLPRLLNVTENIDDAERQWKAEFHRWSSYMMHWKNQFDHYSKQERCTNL
Sequence of equine BChE (P81908 whole entry): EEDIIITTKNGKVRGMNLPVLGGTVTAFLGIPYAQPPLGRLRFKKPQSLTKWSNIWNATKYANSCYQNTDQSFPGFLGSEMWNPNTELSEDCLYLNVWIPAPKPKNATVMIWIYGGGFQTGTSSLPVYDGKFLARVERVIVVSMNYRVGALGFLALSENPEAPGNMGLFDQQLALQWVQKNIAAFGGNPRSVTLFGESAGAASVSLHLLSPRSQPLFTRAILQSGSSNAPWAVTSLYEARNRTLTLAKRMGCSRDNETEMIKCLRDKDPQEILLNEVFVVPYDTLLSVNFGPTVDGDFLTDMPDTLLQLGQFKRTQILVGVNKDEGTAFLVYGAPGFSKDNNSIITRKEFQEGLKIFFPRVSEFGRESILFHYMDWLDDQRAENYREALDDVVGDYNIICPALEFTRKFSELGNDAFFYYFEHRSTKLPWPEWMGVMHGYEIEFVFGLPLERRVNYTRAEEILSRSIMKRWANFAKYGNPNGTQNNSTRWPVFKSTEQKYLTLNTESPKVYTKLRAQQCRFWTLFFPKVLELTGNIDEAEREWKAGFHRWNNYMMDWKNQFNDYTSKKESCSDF

One may read the IC50 as the concentration that gives 50% inhibition. Low readings indicate inhibition by little substance, high ones a need for much substance. In experiment [1], `CCOc1ccc(C=NNC(=S)NCC(=O)c2cccc(C)c2)cc1` [Compound 5, 2-(4-Ethoxybenzylidene)-N-(2-oxo-2-(m-tolyl)ethyl)hydrazine-1-carbothioamide] registered an IC50 of 295.12 ± 0.12 µM. Consider `CCOc1ccc(C=NNC(=S)NCC(=O)c2ccc(Br)cc2)cc1` [Compound 6, N-(2-(4-Bromophenyl)-2-oxoethyl)-2-(4-ethoxybenzylidene)hydrazine-1-carbothioamide], for which the IC50 came to 160.04 ± 0.02 µM in experiment [1] and 190.21 ± 0.13 µM in experiment [2].

For `CCOc1ccc(C=NNC(=S)NCC(=O)c2ccc(Cl)cc2)cc1` [Compound 7, N-(2-(4-Chlorophenyl)-2-oxoethyl)-2-(4-ethoxybenzylidene)hydrazine-1-carbothioamide], in experiment [1], half-maximal inhibition (IC50) required 140.52 ± 0.11 µM. In the case of `CCOc1ccc(C=NNC(=S)NCC(=O)c2ccccc2)cc1` [Compound 8, 2-(4-Ethoxybenzylidene)-N-(2-oxo-2-phenylethyl)hydrazine-1-carbothioamide], the IC50 is 220.22 ± 0.14 µM in experiment [1] and 260.21 ± 0.23 µM in experiment [2].

In experiment [2], `CCOc1ccc(C=NNC(=S)NCC(=O)c2ccccc2O)cc1` [Compound 9, 2-(4-Ethoxybenzylidene)-N-(2-(2-hydroxyphenyl)-2-oxoethyl)hydrazine-1-carbothioamide] showed a half-inhibitory concentration (IC50) of 147.2 ± 0.09 µM. `CCOc1ccc(C=NNC(=S)NCC(=O)c2ccc(Cl)cc2Cl)cc1` [Compound 10, N-(2-(2,4-Dichlorophenyl)-2-oxoethyl)-2-(4-ethoxybenzylidene)hydrazine-1-carbothioamide] gave an IC50 in experiment [1] of 275.71 ± 0.12 µM. With `Cc1ccc(C(=O)CNC(=S)NN=Cc2ccc([N+](=O)[O-])cc2)cc1` [Compound 12, 2-(4-Nitrobenzylidene)-N-(2-oxo-2-(p-tolyl)ethyl)hydrazine-1-carbothioamide], the values for the IC50 in experiment [1] and in experiment [2] were 280.24 ± 0.21 µM and 260.38 ± 0.25 µM, respectively. The like results for `O=C(CNC(=S)NN=Cc1ccc([N+](=O)[O-])cc1)c1ccccc1Br` [Compound 17, N-(2-(2-Bromophenyl)-2-oxoethyl)-2-(4-nitrobenzylidene)hydrazine-1-carbothioamide] were, in that order, 114.6 ± 0.15 µM and 150.4 ± 0.18 µM.

The record behind these values is publication PMC9910069 (ACS Omega, 2023).
